In US10633389B2, “CARM1 inhibitors and uses thereof” (Epizyme, Inc., priority 2013, dated 2020):
pIC50: −log10 of the molar value.

Test system: asymmetric di-methyl PABP1 in RKO cells
Experiment: RKO methylation assay, In Cell Western (ICW) for asymmetric di-methyl PABP1
Assay type: cell-based
Conditions: Homo sapiens, RKO, Cellular potencies, ICW PABP1me2a
Method in brief: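 In-cell Western on fixed RKO cells after 48 h compound exposure: anti-asymmetric di-methyl PABP1 signal at 800 nm over DRAQ5 DNA signal at 700 nm. Percent inhibition set between DMSO wells and wells with 20 μM reference compound; IC50 curves fitted in triplicate.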

| pIC50 | SMILES |
| --- | --- |
| 5.00 to 5.30 | CNCC(O)COc1cccc(-c2nc(-c3cnc4ncnn4c3)cc(N(C)C3CCOCC3)n2)c1 (centres unmarked) [Example 536-1a] |
| 5.00 to 5.30 | CNCC(O)COc1cccc(-c2nc(-c3ccncc3)c(C)c(N(C)C3CCOCC3)n2)c1 (centres unmarked) [Example 537-1a] |
| 4.70 to 5.00 | CNCC(O)COc1cccc(-c2nc(N3CCC[C@H](O)C3)cc(N(C)C3CCOCC3)n2)c1 (some centres unmarked) [Example 538-1a] |
| 4.70 to 5.00 | CNCC(O)COc1cccc(-c2nc(-c3ccnc(OC)c3)cc(N(C)C3CCOCC3)n2)c1 (centres unmarked) [Example 541-1a] |
| 4.70 to 5.00 | CNCC(O)COc1cccc(-c2nc(N(C)C3CCOCC3)cc(-n3cccn3)n2)c1 (centres unmarked) [Example 542-1a] |
| 4.70 to 5.00 | CNCC(O)COc1cccc(-c2nc(N(C)C3CCOCC3)cc(N3C[C@@H]4C[C@H]3CN4C)n2)c1 (some centres unmarked) [Example 543-1a] |
| 4.70 to 5.00 | CNCC(O)COc1cccc(-c2nc(C(C)=O)c(C)c(N(C)C3CCOCC3)n2)c1 (centres unmarked) [Example 544-1a] |
| 4.70 to 5.00 | CNCC(O)COc1cccc(-c2nc(C(=O)NCC3CCOCC3)cc(N(C)C3CCOCC3)n2)c1 (centres unmarked) [Example 548-1a] |
| 4.70 to 5.00 | CNCC(O)COc1cccc(-c2nc(N3CCN(C)C(=O)C3)cc(N(C)C3CCOCC3)n2)c1 (centres unmarked) [Example 549-1a] |
| 4.70 to 5.00 | CNCC(O)COc1cccc(-c2nc(N3CC4(CCNCC4)c4ccccc43)cc(N(C)C3CCOCC3)n2)c1 (centres unmarked) [Example 559-1a] |
| 4.70 to 5.00 | CNCC(O)COc1cccc(-c2nc(N3CCNCC3)c(C)c(N(C)C3CCOCC3)n2)c1 (centres unmarked) [Example 560-1a] |
| 4.70 to 5.00 | CNCC(O)COc1cc(Cl)cc(-c2nc(-c3cnc4ccccn34)c(C)c(N(C)C3CCOCC3)n2)c1 (centres unmarked) [Example 561-1a] |
| 4.70 to 5.00 | CNCC(O)COc1cccc(-c2nc(N(C)C3CCOCC3)cc(N3C[C@H]4C[C@@H]3CN4)n2)c1 (some centres unmarked) [Example 562-1a] |
| 4.70 to 5.00 | CNCC(O)COc1cccc(-c2nc(-c3cnc4n3CCNC4)cc(N(C)C3CCOCC3)n2)c1 (centres unmarked) [Example 563-1a] |
| 4.70 to 5.00 | CNCC(O)COc1cccc(-c2nc(-c3cnc4ccnn4c3)cc(N(C)C3CCOCC3)n2)c1 (centres unmarked) [Example 564-1a] |
| 4.70 to 5.00 | CCOC(=O)c1sc(-c2cc(N(C)C3CCOCC3)nc(-c3cccc(OCC(O)CNC)c3)n2)nc1C (centres unmarked) [Example 565-1a] |
| 4.70 to 5.00 | CNCC(O)COc1cccc(-c2nc(N3CC4CCC(C3)O4)cc(N(C)C3CCOCC3)n2)c1 (centres unmarked) [Example 566-1a] |
| 4.70 to 5.00 | CNCC(O)COc1cccc(-c2nc(N(C)C3CCOCC3)c(C)c(N3CCNC[C@@H]3C)n2)c1 (some centres unmarked) [Example 567-1a] |
| 4.70 to 5.00 | CNCC(O)COc1cccc(-c2nc(N(C)C3CCOCC3)cc(-n3nc(C)cc3C)n2)c1 (centres unmarked) [Example 568-1a] |
| 4.70 to 5.00 | CNCC(O)COc1cccc(-c2nc(-c3sc(C)nc3C)cc(N(C)C3CCOCC3)n2)c1 (centres unmarked) [Example 569-1a] |
| 4.70 to 5.00 | CNCC(O)COc1cccc(-c2nc(-c3cc4ccccc4o3)cc(N(C)C3CCOCC3)n2)c1 (centres unmarked) [Example 570-1a] |
| 4.70 to 5.00 | CNC[C@@H](O)COc1cccc(-c2nc(-c3c[nH]c4ncncc34)cc(N(C)C3CCOCC3)n2)c1 [Example 571-1a] |
| 4.70 to 5.00 | CNCC(O)COc1cccc(-c2nc(-c3cnc(CO)n3C)cc(N(C)C3CCOCC3)n2)c1 (centres unmarked) [Example 572-1a] |
| 4.70 to 5.00 | CNCC(O)COc1cccc(-c2nc(SC)cc(N(C)C3CCOCC3)n2)c1 (centres unmarked) [Example 573-1a] |
| 4.70 to 5.00 | CNCC(O)COc1cc(Cl)cc(-c2nc(-c3ccncc3)c(C3CC3)c(N(C)C3CCOCC3)n2)c1 (centres unmarked) [Example 574-1a] |
| 4.70 to 5.00 | CNCC(O)COc1cccc(-c2nc(N3CCNC(=O)C3)cc(N(C)C3CCOCC3)n2)c1 (centres unmarked) [Example 575-1a] |
| 4.70 to 5.00 | CNCC(O)COc1cccc(-c2nc(N3CCN4C(=O)OC[C@@H]4C3)cc(N(C)C3CCOCC3)n2)c1 (some centres unmarked) [Example 576-1a] |
| 4.70 to 5.00 | CNCC(O)COc1cc(Cl)cc(-c2nc(C(=O)N(C)CC3CCOCC3)cc(N(C)C3CCOCC3)n2)c1 (centres unmarked) [Example 577-1a] |

| pIC50 | SMILES |
| --- | --- |
| 4.70 to 5.00 | CNCC(O)COc1cccc(-c2nc(N3CCN(CCF)[C@@H](C)C3)cc(N(C)C3CCOCC3)n2)c1 (some centres unmarked) [Example 578-1a] |
| 4.70 to 5.00 | CNCC(O)COc1cccc(-c2nc(N3CCC4(CCO4)CC3)cc(N(C)C3CCOCC3)n2)c1 (centres unmarked) [Example 579-1a] |
| 4.70 to 5.00 | CNCC(O)COc1cccc(-c2nc(-c3cncn3C)cc(N(C)C3CCOCC3)n2)c1 (centres unmarked) [Example 580-1a] |
| 4.70 to 5.00 | CNCC(O)COc1cccc(-c2nc(N3CCN(C(=O)OC)[C@@H](C)C3)cc(N(C)C3CCOCC3)n2)c1 (some centres unmarked) [Example 581-1a] |
| 4.70 to 5.00 | CNCC(O)COc1cc(Cl)cc(-c2nc(-c3ccnc(N(C)C)c3)cc(N(C)C3CCOCC3)n2)c1 (centres unmarked) [Example 609-1a] |
| 4.70 to 5.00 | CNCC(O)COc1cc(Cl)cc(-c2nc(-c3cnn(C)c3)cc(N(C)C3CCOCC3)n2)c1 (centres unmarked) [Example 610-1a] |
| 4.70 to 5.00 | CNCC(O)COc1cc(Cl)cc(-c2nc(-c3ccncc3)c(Br)c(N(C)C3CCOCC3)n2)c1 (centres unmarked) [Example 611-1a] |
| 4.70 to 5.00 | CNCC(O)COc1cc(Cl)cc(-c2nc(-c3cnc4ccccc4n3)c(C)c(N(C)C3CCOCC3)n2)c1 (centres unmarked) [Example 612-1a] |
| 4.70 to 5.00 | CNCC(O)COc1cccc(-c2nc(-c3ccc(C(F)(F)F)nc3)cc(N(C)C3CCOCC3)n2)c1 (centres unmarked) [Example 613-1a] |
| 4.70 to 5.00 | CNCC(O)COc1cc(Cl)cc(-c2nc(-c3ccc(N(C)C)nc3)c(C)c(N(C)C3CCOCC3)n2)c1 (centres unmarked) [Example 614-1a] |
| 4.70 to 5.00 | CNCC(O)COc1cccc(-c2nc(C3CCNCC3)cc(N(C)C3CCOCC3)n2)c1 (centres unmarked) [Example 615-1a] |
| 4.70 to 5.00 | CNCC(O)COc1cccc(-c2nc(-c3cccc4ncccc34)cc(N(C)C3CCOCC3)n2)c1 (centres unmarked) [Example 616-1a] |
| 4.70 to 5.00 | CNCC(O)COc1cc(Cl)cc(-c2nc(-c3cn[nH]c3)c(C)c(N(C)C3CCOCC3)n2)c1 (centres unmarked) [Example 617-1a] |
| 4.70 to 5.00 | CNCC(O)COc1cc(Cl)cc(-c2nc(N(C)C3CCOCC3)c(C)c(-n3cccn3)n2)c1 (centres unmarked) [Example 618-1a] |
| 4.70 to 5.00 | C=C(C)c1cc(N(C)C2CCOCC2)nc(-c2cc(Cl)cc(OCC(O)CNC)c2)n1 (centres unmarked) [Example 619-1a] |
| 4.70 to 5.00 | CNCC(O)COc1cccc(-c2nc(-c3cnc4nccn4c3)cc(N(C)C3CCOCC3)n2)c1 (centres unmarked) [Example 620-1a] |
| 4.70 to 5.00 | CNCC(O)COc1cccc(-c2nc(C3=CCCC3)cc(N(C)C3CCOCC3)n2)c1 (centres unmarked) [Example 621-1a] |
| 4.70 to 5.00 | CNCC(O)COc1cccc(-c2nc(-c3cccc(C#N)c3)cc(N(C)C3CCOCC3)n2)c1 (centres unmarked) [Example 622-1a] |
| 4.70 to 5.00 | CNCC(O)COc1cc(Cl)cc(-c2nc(C(=O)OC)cc(N(C)C3CCOCC3)n2)c1 (centres unmarked) [Example 623-1a] |
| 4.70 to 5.00 | CNCC(O)COc1cccc(-c2nc(-c3nc(C)cs3)cc(N(C)C3CCOCC3)n2)c1 (centres unmarked) [Example 624-1a] |
| ≤ 4.70 | CNCC(O)COc1cc(Cl)cc(-c2nc(-c3ccncc3)cc(N3CCOCC3)n2)c1 (centres unmarked) [Example 632-1a] |
| ≤ 4.70 | CNCC(O)COc1cccc(-c2nc(NC3CCOCC3)c(C)c(N3CCN(C(C)C)CC3)n2)c1 (centres unmarked) [Example 644-1a] |
| ≤ 4.70 | CNCC(O)COc1cccc(-c2nc(NC3CCOCC3)cc(-c3ccc4c(c3)OCCO4)n2)c1 (centres unmarked) [Example 657-1a] |
| ≤ 4.70 | CNCC(O)COc1cccc(-c2nc(NC3CCOCC3)cc(-c3ccc(OC)c(OC)c3)n2)c1 (centres unmarked) [Example 658-1a] |
| ≤ 4.70 | CNCC(O)COc1cc(Cl)cc(-c2nc(NC3CCNCC3)cc(-c3ccncc3)n2)c1 (centres unmarked) [Example 665-1a] |
| ≤ 4.70 | CNCC(O)COc1cccc(-c2nc(C(=O)NC3CCOCC3)c(C)c(C(=O)NC3CCOCC3)n2)c1 (centres unmarked) [Example 677-1a] |
| ≤ 4.70 | CCN(CC)c1nc(-c2cccc(OCC(O)CNC)c2)nc(N2CCOCC2)c1C (centres unmarked) [Example 682-1a] |

| SMILES | pIC50 |
| --- | --- |
| CNCC(O)COc1cccc(-c2nc(-c3ccncc3)cc(N(C)C3CCNCC3)n2)c1 (centres unmarked) [Example 669-1a] | ≤ 4.70 |
